Experimental data: PMC10182713 (South African Journal of Botany, 2023)
≈ marks a conversion by molar mass, not a printed value.

How the values were obtained:
[1] = system: HepG2 cells; conditions: tert-butyl hyperoxide induced-toxicity on HepG2 cells; ref Kim et al. (2011); cited from earlier work
[2] = system: M. bovis (ATCC 27290); test: microbe, parasite or virus in culture; assay type: cell-based, Mycobacterium bovis; conditions: for MIC: Mycobacterium tuberculosis variant bovis, ATCC27290, read-out: MIC M. bovis
[3] = system: M. tuberculosis H37RV (ATCC 27294); test: microbe, parasite or virus in culture; assay type: cell-based, Mycobacterium tuberculosis; conditions: for MIC: Mycobacterium tuberculosis, ATCC27294|H37RV, read-out: MIC M. tb H37Rv
[4] = system: Mycobacterium smegmatis (ATCC 1441); test: microbe, parasite or virus in culture; assay type: cell-based; conditions: for MIC: Mycolicibacterium smegmatis, ATCC1441, 24 h, read-out: MIC M. smegmatis
[5] = system: pathogenic and non-pathogenic Mycobacterium strains; assay type: cell-based
[6] = system: M. fortuitum (ATCC 6841); test: microbe, parasite or virus in culture; assay type: cell-based, Mycobacterium fortuitum; conditions: Mycolicibacterium fortuitum, ATCC6841, 24 h, read-out: MIC M. fortuitum
[7] = system: Vero monkey kidney cells; assay type: cell-based
[8] = system: Caco-2 cells; assay type: cell-based, human
[9] = system: C3A cells; assay type: cell-based
[10] = system: HepG2 liver cells; conditions: human
[11] = system: Mycobacterium; conditions: antimycobacterial activity; ref Boonphong et al., 2007; cited from earlier work
[12] = system: M. aurum (NCTC 10437); test: microbe, parasite or virus in culture; assay type: cell-based, Mycobacterium aurum; conditions: Mycolicibacterium aurum, NCTC10437, read-out: MIC M. aurum
[13] = in vitro; conditions: human, Cell viability of HepG2 cells treated with the toxicant alone

For `O=c1c(O[C@@H]2O[C@@H](CO)[C@H](O)[C@H]2O)c(-c2ccc(O)c(O)c2)oc2cc(O)cc(O)c12` [avicularin], the “Hepatoprotective activity in words” value [1] is listed as “significant hepatoprotective activity”.

For 4′-methoxykaempferol, the “MIC M. bovis” value [2] was 125 µg/mL, the “MIC M. tb H37Rv” value [3] was 125 µg/mL and the “MIC M. smegmatis” value [4] was 250 µg/mL. For the same compound, the “Antimycobacterial activity in words” value [5] was “weak”.

`COc1ccc(-c2oc3cc(OC)cc(O)c3c(=O)c2OC)cc1` [5‑hydroxy-3,7,4′-trimethoxyflavone] gave an MIC [2] of 63 µg/mL (≈ 192 µM), an MIC [3] of 63 µg/mL (≈ 192 µM) and an MIC [6] of 63 µg/mL (≈ 192 µM). For the same compound, the MIC [4] was 63 µg/mL (≈ 192 µM), the “Selectivity index LC50/MIC M. fortuitum” value [7] was 3.127 and the “Selectivity index LC50/MIC M. smegmatis” value [7] was 3.127. The “Selectivity index LC50/MIC M. tb H37RV” value [7] was 3.127, the “Selectivity index LC50/MIC M. bovis” value [8] was 2.524 and the “Selectivity index LC50/MIC M. fortuitum” value [8] was 2.524. The “Selectivity index LC50/MIC M. smegmatis” value [8] was 2.524, the “Selectivity index LC50/MIC M. tb H37RV” value [8] was 2.524 and the “Selectivity index LC50/MIC M. bovis” value [9] was 3.174. For the same compound, the “Selectivity index LC50/MIC M. fortuitum” value [9] was 3.174, the “Selectivity index LC50/MIC M. smegmatis” value [9] was 3.174 and the “Selectivity index LC50/MIC M. tb H37RV” value [9] was 3.174. The “Antimycobacterial activity in words” value [5] was “good activity” and the “Percentage hepatoprotective activity (cell viability)” value [10] was 89.277±0.023%.

In the case of chaplashin, the MIC [11] is listed as 3 µg/mL.

With `[H]/N=C(/N)N[C@H]1[C@H](O)[C@@H](O)[C@H](O[C@@H]2O[C@@H](C)[C@](O)(C=O)[C@H]2O[C@@H]2O[C@@H](CO)[C@H](O)[C@@H](O)[C@@H]2NC)[C@@H](N/C(N)=N\[H])[C@@H]1O` [Strep (+ve con), streptomycin, reference compound] the MIC [2] was 4 µg/mL (≈ 6.88 µM), the MIC [3] was 0.24 µg/mL (≈ 0.413 µM) and the MIC [12] was 4 µg/mL (≈ 6.88 µM). The MIC [6] was > 1000 µg/mL and the MIC [4] was 3.9 µg/mL (≈ 6.71 µM).

For `COc1cc2oc(-c3ccc(O)cc3O)c(CC=C(C)C)c(=O)c2c(O)c1/C=C/C(C)C` [artocarpin], the MIC [11] is listed as 3 µg/mL (≈ 6.87 µM).

In the case of `O=c1c(O)c(-c2ccc(O)c(O)c2)oc2cc(O)cc(O)c12` [quercetin], the “Hepatoprotective activity in words” value [1] is listed as “significant hepatoprotective activity”.

`COc1ccc(C2CC(=O)c3c(OC)cc(OC)cc3O2)cc1` (stereo not drawn) [5,7,4′-trimethoxy flavanone] showed an MIC [2] of 63 µg/mL (≈ 200 µM), an MIC [3] of 31 µg/mL (≈ 98.6 µM) and an MIC [6] of 63 µg/mL (≈ 200 µM). For the same compound, the MIC [4] was 63 µg/mL (≈ 200 µM), the “Selectivity index LC50/MIC M. bovis” value [7] was 3.206 and the “Selectivity index LC50/MIC M. fortuitum” value [7] was 3.206. For the same compound, the “Selectivity index LC50/MIC M. smegmatis” value [7] was 3.206, the “Selectivity index LC50/MIC M. bovis” value [8] was 3.175 and the “Selectivity index LC50/MIC M. fortuitum” value [8] was 3.175. For the same compound, the “Selectivity index LC50/MIC M. smegmatis” value [8] was 3.175, the “Selectivity index LC50/MIC M. tb H37RV” value [8] was 6.452 and the “Selectivity index LC50/MIC M. bovis” value [9] was 3.174. The “Selectivity index LC50/MIC M. fortuitum” value [9] was 3.174, the “Selectivity index LC50/MIC M. smegmatis” value [9] was 3.174 and the “Selectivity index LC50/MIC M. tb H37RV” value [9] was 6.452. For the same compound, the “Antimycobacterial activity in words” value [5] was “good activity” and the “Percentage hepatoprotective activity (cell viability)” value [10] was 85.674±0.0618%.

`CO[C@H]1/C=C/O[C@@]2(C)Oc3c(C)c(O)c4c(O)c(c(/C=N/N5CCN(C)CC5)c(O)c4c3C2=O)NC(=O)/C(C)=C\C=C\[C@H](C)[C@H](O)[C@@H](C)[C@@H](O)[C@@H](C)[C@H](OC(C)=O)[C@@H]1C` [Rif (+ve con), rifampicin, reference compound] showed an MIC [2] of 4 µg/mL (≈ 4.86 µM), an MIC [3] of 0.24 µg/mL (≈ 0.292 µM) and an MIC [12] of 4 µg/mL (≈ 4.86 µM). For the same compound, the MIC [6] was 63 µg/mL (≈ 76.6 µM), the MIC [4] was 3.9 µg/mL (≈ 4.74 µM) and the “Selectivity index LC50/MIC M. aurum” value [7] was 23.500. For the same compound, the “Selectivity index LC50/MIC M. bovis” value [7] was 23.500, the “Selectivity index LC50/MIC M. fortuitum” value [7] was 1.492 and the “Selectivity index LC50/MIC M. smegmatis” value [7] was 24.103. The “Selectivity index LC50/MIC M. tb H37RV” value [7] was >100, the “Cell viability of HepG2 cells treated with the toxicant alone” value [10] was 65.27±0.184% and the viability [13] was 65%.

In the case of `O=c1c(O[C@@H]2O[C@H](CO)[C@@H](O)[C@H](O)[C@H]2O)c(-c2ccc(O)c(O)c2)oc2cc(O)cc(O)c12` [hirsutrin], the “Hepatoprotective activity in words” value [1] is given as “significant hepatoprotective activity”.
